Activity calls are given as the source filed them. No cut-off for these calls is given here.

Experiment [1] relates to Rattus norvegicus. Kind of experiment: Antiallergic activity in rat reaginic passive cutaneous anaphylaxis (PCA) test upon peroral administration. It counts as functional. As to conditions: po, read-out: ID50 (the source's name).
Experiment [2] deals with Rattus norvegicus. The experiment can be described thus: Antiallergic activity in rat reaginic passive cutaneous anaphylaxis (PCA) test upon intravenous administration. It counts as functional. As to conditions: read-out: ID50 (the source's name).
Experiment [3] relates to Rattus norvegicus. The experiment can be described thus: Antiallergic activity in rat reaginic passive cutaneous anaphylaxis (PCA) test upon peroral administration; NA means inactive. Type of experiment: functional, organism-based.
Experiment [4] deals with Rattus norvegicus. Kind of experiment: Antiallergic activity in rat reaginic passive cutaneous anaphylaxis (PCA) test upon intravenous administration; Insoluble. It counts as functional, organism-based.

For the compound `CC1CCC(N=Nc2ccccc2C(=O)O)=C2N(C)C=C(C(=O)O)C(=O)N21` (centres undefined), the ED50 with Rattus norvegicus [1] and with Rattus norvegicus [2] was more than 100 µmol/kg each time.

Consider `CC1CCC(C)(N=Nc2ccccc2)c2ncc(C(=O)O)c(=O)n21` (centres undefined), for which the ED50 was more than 100 µmol/kg in the experiment with Rattus norvegicus [1] and 35 µmol/kg with Rattus norvegicus [2].

`COc1cc(NN=C2CCC(C)n3c2ncc(C(=O)O)c3=O)cc(OC)c1` (centres undefined): the values for the ED50 in the experiment with Rattus norvegicus [1] and in the experiment on Rattus norvegicus [2] were 100 µmol/kg and 0.42 µmol/kg, respectively.

As to `O=C(O)c1cc(=O)c2c(OCC(O)COc3cccc4oc(C(=O)O)cc(=O)c34)cccc2o1` [CROMOLYN SODIUM], the ED50 in the experiment with Rattus norvegicus [2] worked out at 1 µmol/kg. Moreover, the ID50 result in the experiment on Rattus norvegicus [3] was “inactive”.

With `CC1CCC(=NNc2ccccc2)c2ncc(C(=O)O)c(=O)n21` (centres undefined), the values for the ED50 in the experiment on Rattus norvegicus [1] and in the experiment on Rattus norvegicus [2] were 1.2 µmol/kg and 0.6 µmol/kg, respectively.

As to `CC1CCC(=NNc2cc(C(F)(F)F)cc(C(F)(F)F)c2)c2ncc(C(=O)O)c(=O)n21` (centres undefined), the ID50 entry in the experiment on Rattus norvegicus [4] is “Insoluble”. In addition, the ED50 with Rattus norvegicus [1] was more than 100 µmol/kg.

As to `CCc1nc2n(c(=O)c1C(N)=O)C(C)CCC2=NNc1ccccc1` (centres undefined), in the experiment on Rattus norvegicus [4], the ID50 entry is reported as “Insoluble”. The ED50 in the experiment with Rattus norvegicus [1] was more than 100 µmol/kg.

Take `CC1CC/C(=N\N)c2ncc(C(=O)O)c(=O)n21` (centres undefined): the results for the ED50 in the experiment on Rattus norvegicus [1] and in the experiment on Rattus norvegicus [2] were more than 100 µmol/kg and 42 µmol/kg, respectively.

Regarding `Cc1c(NN=C2CCC(C)n3c2ncc(C(=O)O)c3=O)c(=O)n(-c2ccccc2)n1C` (centres undefined), the ED50 with Rattus norvegicus [1] is more than 100 µmol/kg; in the experiment on Rattus norvegicus [2] it was 31 µmol/kg.

As for `CCOC(=O)c1cnc2n(c1=O)C(C)CCC2=NNc1c(C)n(C)n(-c2ccccc2)c1=O` (centres undefined), the ED50 in the experiment with Rattus norvegicus [1] was more than 100 µmol/kg; with Rattus norvegicus [2], 95 µmol/kg.

Turning to `CC1CCC(=NNc2ccc(Br)cc2Cl)c2ncc(C(=O)O)c(=O)n21` (centres undefined), in the experiment on Rattus norvegicus [4], the ID50 result was “Insoluble”. Further, the ED50 in the experiment on Rattus norvegicus [1] is more than 100 µmol/kg.

`CC1CCC(=NNc2ccc(Cl)cc2Cl)c2ncc(C(=O)O)c(=O)n21` (centres undefined): in the experiment on Rattus norvegicus [4], the ID50 entry is listed as “Insoluble”. Besides, the ED50 in the experiment on Rattus norvegicus [1] is more than 100 µmol/kg.

As for `Cc1cccc(C)c1NN=C1CCC(C)n2c1ncc(C(=O)O)c2=O` (centres undefined), in the experiment on Rattus norvegicus [4], the ID50 entry is “Insoluble”. Moreover, the ED50 in the experiment with Rattus norvegicus [1] came to 320 µmol/kg.

Take `CC1CCC(=NNc2ccc3c(c2)OCO3)c2ncc(C(=O)O)c(=O)n21` (centres undefined): the results for the ED50 in the experiment on Rattus norvegicus [1] and in the experiment with Rattus norvegicus [2] were more than 100 µmol/kg and 0.33 µmol/kg, respectively.

`COc1cc(OC)c(NN=C2CCC(C)n3c2ncc(C(=O)O)c3=O)cc1Cl` (centres undefined): in the experiment with Rattus norvegicus [4], the ID50 entry is given as “Insoluble”. Moreover, in the experiment with Rattus norvegicus [1], the ED50 was more than 100 µmol/kg.

In the case of `Cc1nc2n(c(=O)c1C(=O)O)C(C)CCC2=NNc1ccccc1` (centres undefined), the ED50 is more than 320 µmol/kg in the experiment on Rattus norvegicus [1] and more than 100 µmol/kg with Rattus norvegicus [2].

On to `CC1CCC(=NNc2cccc3ccccc23)c2ncc(C(=O)O)c(=O)n21` (centres undefined), for which the ID50 entry with Rattus norvegicus [4] is “Insoluble”. Also, in the experiment with Rattus norvegicus [1], the ED50 is more than 320 µmol/kg.

For `CC1CCC(=NNc2cc(Cl)ccc2O)c2ncc(C(=O)O)c(=O)n21` (centres undefined), the ID50 entry with Rattus norvegicus [4] was “Insoluble”. In addition, in the experiment with Rattus norvegicus [1], the ED50 was more than 100 µmol/kg.

Regarding `Cc1ccc(NN=C2CCC(C)n3c2ncc(C(=O)O)c3=O)cc1C` (centres undefined), the values for the ED50 in the experiment on Rattus norvegicus [1] and in the experiment on Rattus norvegicus [2] were more than 100 µmol/kg and 6.5 µmol/kg, respectively.

On to `CC1CCC(=NNc2cc([N+](=O)[O-])cc([N+](=O)[O-])c2)c2ncc(C(=O)O)c(=O)n21` (centres undefined), for which the ED50 with Rattus norvegicus [1] is more than 100 µmol/kg; with Rattus norvegicus [2] it was 3.4 µmol/kg.

Take `CC1CCC(N=Nc2ccccc2)=C2N(C)C=C(C(=O)O)C(=O)N21` (centres undefined): the ID50 result in the experiment with Rattus norvegicus [4] was “Insoluble”. In the experiment with Rattus norvegicus [1], the ED50 was more than 100 µmol/kg.

As to `Cc1cccc(NN=C2CCC(C)n3c2ncc(C(=O)O)c3=O)c1C` (centres undefined), the ID50 entry with Rattus norvegicus [4] was “Insoluble”. In addition, the ED50 in the experiment on Rattus norvegicus [1] was more than 100 µmol/kg.

On to `Cc1cc(C)c(NN=C2CCC(C)n3c2ncc(C(=O)O)c3=O)cc1C` (centres undefined), for which the ID50 entry in the experiment with Rattus norvegicus [4] was “Insoluble”. Further, the ED50 in the experiment on Rattus norvegicus [1] turned out to be 320 µmol/kg.

Take `CC1CCC(=NNc2ccc(Cl)c(Cl)c2)c2ncc(C(=O)O)c(=O)n21` (centres undefined): the ED50 in the experiment with Rattus norvegicus [1] was more than 100 µmol/kg; in the experiment with Rattus norvegicus [2], 0.89 µmol/kg.

As to `CC1CCC(=NNc2ccccc2C(=O)O)c2ncc(C(=O)O)c(=O)n21` (centres undefined), the ED50 with Rattus norvegicus [1] was more than 100 µmol/kg; in the experiment with Rattus norvegicus [2] it was 0.48 µmol/kg.

As for `CC1CCC(=NNc2c(Cl)cccc2Cl)c2ncc(C(=O)O)c(=O)n21` (centres undefined), the ID50 entry with Rattus norvegicus [4] is given as “Insoluble”. In addition, the ED50 in the experiment on Rattus norvegicus [1] is more than 100 µmol/kg.

In the case of `Cc1cccc(Cl)c1NN=C1CCC(C)n2c1ncc(C(=O)O)c2=O` (centres undefined), the ID50 entry in the experiment with Rattus norvegicus [4] was “Insoluble”. For the same compound, in the experiment on Rattus norvegicus [1], the ED50 was more than 100 µmol/kg.

With `CC1CCC(=NNc2ccccc2C(=O)O)c2ncc(C(=O)NO)c(=O)n21` (centres undefined), the ED50 with Rattus norvegicus [1] and in the experiment with Rattus norvegicus [2] was more than 100 µmol/kg each time.

Take `CC1CCC(=NNc2cccnc2)c2ncc(C(=O)O)c(=O)n21` (centres undefined): the ED50 is more than 320 µmol/kg in the experiment on Rattus norvegicus [1] and 0.54 µmol/kg in the experiment on Rattus norvegicus [2].

Turning to `Cc1cc(NN=C2CCC(C)n3c2ncc(C(=O)O)c3=O)ccc1Br` (centres undefined), the ID50 entry in the experiment with Rattus norvegicus [4] was “Insoluble”. In addition, the ED50 with Rattus norvegicus [1] was more than 100 µmol/kg.

Take `Cc1cc(C)cc(NN=C2CCC(C)n3c2ncc(C(=O)O)c3=O)c1` (centres undefined): the ID50 result in the experiment on Rattus norvegicus [4] is “Insoluble”. Further, the ED50 in the experiment with Rattus norvegicus [1] is more than 320 µmol/kg.

`Cc1nc2n(c(=O)c1C(N)=O)C(C)CCC2=NNc1ccccc1` (centres undefined): the ID50 result in the experiment on Rattus norvegicus [4] was “Insoluble”. Also, the ED50 in the experiment with Rattus norvegicus [1] was more than 100 µmol/kg.

As for `CC1CCC(=NNc2ccc3ccccc3c2)c2ncc(C(=O)O)c(=O)n21` (centres undefined), the values for the ED50 in the experiment on Rattus norvegicus [1] and with Rattus norvegicus [2] were more than 100 µmol/kg and 0.77 µmol/kg, respectively.

For `CC1CCC(=NNc2cc(Cl)cc(Cl)c2)c2ncc(C(=O)O)c(=O)n21` (centres undefined), the ED50 with Rattus norvegicus [1] was more than 100 µmol/kg; in the experiment with Rattus norvegicus [2] it was 13.3 µmol/kg.

`CCc1nc2n(c(=O)c1C(=O)O)C(C)CCC2=NNc1ccccc1` (centres undefined): the ED50 with Rattus norvegicus [1] was more than 320 µmol/kg; with Rattus norvegicus [2] it was more than 100 µmol/kg.

`Cc1cc(C)c(NN=C2CCC(C)n3c2ncc(C(=O)O)c3=O)c(C)c1` (centres undefined): the ID50 entry with Rattus norvegicus [4] is listed as “Insoluble”. The ED50 with Rattus norvegicus [1] was determined as 320 µmol/kg.

As for `CC1CCC(=NN(C)c2ccccc2)c2ncc(C(=O)O)c(=O)n21` (centres undefined), the ED50 with Rattus norvegicus [1] is more than 100 µmol/kg; with Rattus norvegicus [2], 52.4 µmol/kg.

`CC1CCC(=NNc2ccccc2)c2ncc(C(=O)NO)c(=O)n21` (centres undefined): the ED50 in the experiment on Rattus norvegicus [1] and with Rattus norvegicus [2] was more than 100 µmol/kg throughout.

With `CC1CCC(=NNc2ccccn2)c2ncc(C(=O)O)c(=O)n21` (centres undefined), the values for the ED50 in the experiment with Rattus norvegicus [1] and in the experiment with Rattus norvegicus [2] were more than 100 µmol/kg and 3.2 µmol/kg, respectively.

On to `CC1CCC(C)(N=Nc2ccccc2C(=O)O)c2ncc(C(=O)O)c(=O)n21` (centres undefined), for which the ED50 in the experiment on Rattus norvegicus [1] and with Rattus norvegicus [2] was more than 100 µmol/kg each time.

As to `CC1CCC(=NNc2nn[nH]n2)c2ncc(C(=O)O)c(=O)n21` (centres undefined), the ED50 in the experiment with Rattus norvegicus [1] and in the experiment with Rattus norvegicus [2] was more than 100 µmol/kg throughout.

`CNN=C1CCC(C)n2c1ncc(C(=O)O)c2=O` (centres undefined): the ED50 with Rattus norvegicus [1] is more than 100 µmol/kg; with Rattus norvegicus [2], 17.5 µmol/kg.

The values above are taken from ChEMBL document CHEMBL1122265, “Nitrogen bridgehead compounds. 33. New antiallergic 4H-pyrido[1,2-a]pyrimidin-4-ones. 2” (1983).
